Results on 24 compounds are retold here after patent publication US8846666B2, “Oxathiazine derivatives which are substituted with benzyl or heteromethylene groups, method for producing them, their use as medicine and drug containing said derivatives and the use thereof” (Sanofi, priority 2011, dated 2014).

For orientation: IC50 means the concentration needed to halve the response being measured. A high value points to lower potency.

human 11β-HSD1 microsome fraction, sequence (P28845 whole entry): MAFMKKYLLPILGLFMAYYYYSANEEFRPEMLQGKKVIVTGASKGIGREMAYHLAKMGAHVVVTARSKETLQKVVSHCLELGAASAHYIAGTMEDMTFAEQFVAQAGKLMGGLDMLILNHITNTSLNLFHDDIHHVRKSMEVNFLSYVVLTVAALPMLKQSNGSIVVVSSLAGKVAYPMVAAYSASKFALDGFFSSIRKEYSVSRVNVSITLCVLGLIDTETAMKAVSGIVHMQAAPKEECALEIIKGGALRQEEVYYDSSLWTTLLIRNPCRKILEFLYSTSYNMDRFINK

The target of this assay is human 11β-HSD1 microsome fraction (Homo sapiens, UniProt P28845). In words: Enzymatic 11Beta-HSD1 test (SPA-based detection). The following applies: [1,2-3H]-cortisone, NADPH, 37° C. for 1 hour. It is filed as biochemical. The procedure: Enzymatic 11Beta-HSD1 Test:
To measure the activity of the compounds, an SPA-based detection method (Solly et al. 2005) was employed. First of all, 20 μl of the human 11β-HSD1 microsome fraction (0.2 μg of protein), prepared in 50 mM HEPES, 0.1% BSA (w/v), were applied to a plate with 384 wells. The test compounds (0.09 μl) were applied to the assay plate in 100% DMSO. The reaction was started by addition of 20 μl of [1,2-^3H]-cortisone (0.1 μCi/[…]) in assay buffer comprising 25 mM HEPES, 100 mM KCl, 5 mM NaCl, 2 mM MgCl2 and 0.25 mM NADPH. The plate was agitated at 37° C. for 1 hour. At the same time, a stop solution comprising 20 mg/ml SPA-PVT beads, 1.6 mg/ml monoclonal cortisol antibody and 0.01 mM SSR110887 (inhibitor from the Biovitrium patent) in 50 mM HEPES, 1 M NaCl and 1 M KCl was stirred at room temperature. To stop the reaction, 25 μl of the stop solution were added to each well. The plate was agitated gently at room temperature for 1 further hour and then centrifuged at 500 gav for 1 min, in order that the SPA beads could settle out. The plate was then read in a Wallac-1450-Microbeta unit with a standard SPA program (counting time 1 min/well). The comparative compound was glycyrrhetinic acid.
Protein and radioactive substrate were dispensed with a Biomek FX unit (Beckman Coulter) for handling liquids. The test compounds were added with a Cybi-Well equipped with a 90 nl pin tool (CyBio).
Lit.: Solly S, Mundt S S, Zokian H J, Juy-Fang Ding G, Hermanowski-Vosatka A, Strulovici B and Zheng W. High-throughput screening of 11β-Hydroxysteroid dehydrogenase type 1 in scintillation proximity format. Assay Drug Dev Technol 2005; 3:377-384.
`CC1(C)OC(N[C@@H](CCO)c2ccccc2F)=NS(=O)(=O)[C@H]1Cc1ccc(C2CCN(C3CC3)CC2)cc1` [Example 42, (S)-3-{(S)-5-[4-(1-Cyclopropyl-piperidin-4-yl)-benzyl]-6,6-dimethyl-4,4-dioxo-5,6-dihydro-4H-4lambda6-[1,4,3]oxathiazin-2-ylamino}-3-(2-fluoro-phenyl)-propan-1-ol] had an IC50 of 5 nM.
As for `CN(CCO)CCCc1ccc(CC2C(C)(C)OC(N[C@@H](CCO)c3ccccc3F)=NS2(=O)=O)cc1` (stereo partly drawn) [Example 36], the IC50 worked out at 38 nM.
`C[C@H](NC1=NS(=O)(=O)C(Cc2ccc(C3CCN(CCO)CC3)cc2)C(C)(C)O1)c1ccccc1F` (stereo partly drawn) [Example 37, 2-[4-(4-{2-[(S)-1-(2-fluorophenyl)-ethylamino]-6,6-dimethyl-4,4-dioxo-5,6-dihydro-4H-4lambda6-[1,4,3]oxathiazin-5-ylmethyl}-phenyl)-piperidin-1-yl]-ethanol] showed an IC50 of 37 nM.
For `C[C@H](NC1=NS(=O)(=O)[C@H](Cc2ccc(NCCN(C)C)cc2)C(C)(C)O1)c1ccccc1F` [Example 52, N-(4-{(R)-2-[(S)-1-(2-fluorophenyl)-ethylamino]-dimethyl-4,4-dioxo-5,6-dihydro-4H-4lambda6-[1,4,3]oxathiazin-5-ylmethyl}-phenyl)-N′,N′,- dimethyl-ethane-1,2-diamine] the value was 62 nM.
`CC1(C)OC(N[C@@H](CCO)c2cc(Cl)ccc2F)=NS(=O)(=O)C1Cc1ccccc1` (stereo partly drawn) [Example 14, (S)-3-(5-Benzyl-6,6-dimethyl-4,4-dioxo-5,6-dihydro-4H-4lambda6-[1,4,3]oxathiazin-2-ylamino)-3-(5-chloro-2-fluorophenyl)-propan-1-ol] gave an IC50 of 4 nM.
The value for `C[C@H](NC1=NS(=O)(=O)C(C)(Cc2ccc(Br)cc2)C(C)(C)O1)c1ccccc1F` (stereo partly drawn) [Example 3, [5-(4-Bromobenzyl)-5,6,6-trimethyl-4,4-dioxo-5,6-dihydro-4H-4lambda6-[1,4,3]oxathiazin-2-yl]-[(S)-1-(2-fluorophenyl)-ethyl]-amine] was 4 nM; that for `CC1(C)OC(N[C@@H](CCO)c2ccccc2F)=NS(=O)(=O)[C@H]1Cc1ccc(C2CCNCC2)cc1` [Example 35, (S)-3-[(S)-6,6-Dimethyl-4,4-dioxo-5-(4-piperidin-4-yl-benzyl)-5,6-dihydro-4H-4lambda6-[1,4,3]oxathiazin-2-ylamino]-3-(2-fluorophenyl)-propan-1-ol] was 11 nM.
The value for `C[C@H](NC1=NS(=O)(=O)[C@@H](Cc2ccc(OCC(C)(C)N)cc2)C(C)(C)O1)c1ccccc1F` [Example 55, {(S)-5-[4-(2-Amino-2-methyl-propoxy)-benzyl]-6,6-dimethyl-4,4-dioxo-5,6-dihydro-4H-4lambda6-[1,4,3]oxathiazin-2-yl}-[(S)-1-(2-fluorophenyl)-ethyl]-amine] was 8 nM; that for `CC1(C)OC(NC23CCC(F)(CC2)CC3)=NS(=O)(=O)C1Cc1ccccc1` (stereo not drawn) [Example 20, (5-Benzyl-6,6-dimethyl-4,4-dioxo-5,6-dihydro-4H-4lambda6-[1,4,3]oxathiazin-2-yl)-(4-fluoro-bicyclo[2.2.2]oct-1-yl)-amine] was 5 nM.
Compound `CC1(C)OC(N[C@@H](CCO)c2ccccc2F)=NS(=O)(=O)C1Cc1ccc(-c2ccc(C(F)(F)F)cn2)cc1` (stereo partly drawn) [Example 8, (S)-3-{6,6-Dimethyl-4,4-dioxo-5-[4-(5-trifluoromethyl-pyridin-2-yl)-benzyl]-5,6-dihydro-4H-4lambda6-[1,4,3]oxathiazin-2-ylamino}-3-(2-fluoro-phenyl)-propan-1-ol] registered an IC50 of 7 nM.
The value for `CC1(C)OC(N[C@@H](CCO)c2ccccc2F)=NS(=O)(=O)C1(C)Cc1ccc(-c2ccccn2)cc1` (stereo partly drawn) [Example 6, (S)-3-(2-Fluorophenyl)-3-[5,6,6-trimethyl-4,4-dioxo-5-(4-pyridin-2-yl-benzyl)-5,6-dihydro-4H-4lambda6-[1,4,3]oxathiazin-2-ylamino]-propan-1-ol] was 6 nM.
As to `CNCCCc1ccc(CC2C(C)(C)OC(N[C@@H](CCO)c3ccccc3F)=NS2(=O)=O)cc1` (stereo partly drawn) [Example 33, (S)-3-{6,6-Dimethyl-5-[4-(3-methylamino-propyl)-benzyl]-4,4-dioxo-5,6-dihydro-4H-4lambda6-[1,4,3]oxathiazin-2-ylamino}-3-(2-fluorophenyl)-propan-1-ol], it took 30 nM to reach half-maximal inhibition (IC50).
For `CC1(C)OC(N[C@@H](CCO)c2ccccc2F)=NS(=O)(=O)C1Cc1ccc(C2CCN(CCC(F)(F)F)CC2)cc1` (stereo partly drawn) [Example 29, (S)-3-(6,6-Dimethyl-4,4-dioxo-5-{4-[1-(3,3,3-trifluoropropyl)-piperidin-4-yl]-benzyl}-5,6-dihydro-4H-4lambda6-[1,4,3]oxathiazin-2-ylamino)-3-(2-fluorophenyl)-propan-1-ol] the value was 7 nM; for `CC1(C)OC(N[C@@H](CCO)c2ccccc2F)=NS(=O)(=O)C1Cc1cccc(-c2ccccc2)c1` (stereo partly drawn) [Example 9, (S)-3-(5-Biphenyl-3-ylmethyl-6,6-dimethyl-4,4-dioxo-5,6-dihydro-4H-4lambda6-[1,4,3]oxathiazin-2-ylamino)-3-(2-fluoro-phenyl)-propan-1-ol], 5 nM; for `CC1(C)OC(N[C@@H](CCO)c2ccc(F)cc2F)=NS(=O)(=O)C1Cc1ccccc1` (stereo partly drawn) [Example 18, (S)-3-(5-Benzyl-6,6-dimethyl-4,4-dioxo-5,6-dihydro-4H-4lambda6-[1,4,3]oxathiazin-2-ylamino)-3-(2,4-difluorophenyl)-propan-1-ol], 5 nM.
For `CC1(C)OC(N[C@@H](CCO)c2ccccc2Cl)=NS(=O)(=O)C1Cc1ccccc1` (stereo partly drawn) [Example 11, (S)-3-(5-Benzyl-6,6-dimethyl-4,4-dioxo-5,6-dihydro-4H-4lambda6-[1,4,3]oxathiazin-2-ylamino)-3-(2-chlorophenyl)-propan-1-ol] the value was 8 nM; for `C[C@H](NC1=NS(=O)(=O)C(Cc2ccc(C3CCN(C4CC4)CC3)cc2)C(C)(C)O1)c1ccccc1F` (stereo partly drawn) [Example 43, {5-[4-(1-Cyclopropyl-piperidin-4-yl)-benzyl]-6,6-dimethyl-4,4-dioxo-5,6-dihydro-4H-4lambda6-[1,4,3]oxathiazin-2-yl}-[(S)-1-(2-fluorophenyl)-ethyl]-amine], 11 nM.
As for `CC1(C)OC(N[C@@H](CCO)c2ccccc2F)=NS(=O)(=O)C1Cc1ccc(C2CCN(C3CC3)CC2)cc1` (stereo partly drawn) [Example 28, (S)-3-{5-[4-(1-Cyclopropyl-piperidin-4-yl)-benzyl]-6,6-dimethyl-4,4-dioxo-5,6-dihydro-4H-4lambda6-[1,4,3]oxathiazin-2-ylamino}-3-(2-fluorophenyl)-propan-1-ol], the midpoint of inhibition, the IC50, lay at 9 nM.
`C[C@H](NC1=NS(=O)(=O)C(Cc2ccc(C3CCN(C4COC4)CC3)nc2)C(C)(C)O1)c1ccccc1F` (stereo partly drawn) [Example 56, [6,6-Dimethyl-5-(1′-oxetan-3-yl-1′,2′,3′,4′,5′,6′-hexahydro-[2,4′]bipyridinyl-5-ylmethyl)-4,4-dioxo-5,6-dihydro-4H-4lambda6-[1,4,3]oxathiazin-2-yl]-[(S)-1-(2-fluorophenyl)-ethyl]-amine] yielded an IC50 of 24 nM.
`COCCN1CCC(c2ccc(CC3C(C)(C)OC(N[C@@H](C)c4ccccc4F)=NS3(=O)=O)cc2)CC1` (stereo partly drawn) [Example 40, [(S)-1-(2-fluorophenyl)-ethyl]-(5-{4-[1-(2-methoxy-ethyl)-piperidin-4-yl]-benzyl}-6,6-dimethyl-4,4-dioxo-5,6-dihydro-4H-4lambda6-[1,4,3]oxathiazin-2-yl)-amine] came in with an IC50 of 25 nM.
On to `CN1CCC(c2ccc(CC3C(C)(C)OC(N[C@@H](CCO)c4ccccc4F)=NS3(=O)=O)cc2)CC1` (stereo partly drawn) [Example 25], for which half-maximal inhibition (IC50) required 20 nM. The IC50 values of the last two compounds are within 1.5-fold of each other.
The value for `CC1(C)OC(N[C@@H](CCO)c2cccc(F)c2Cl)=NS(=O)(=O)C1Cc1ccccc1` (stereo partly drawn) [Example 13, (S)-3-(5-Benzyl-6,6-dimethyl-4,4-dioxo-5,6-dihydro-4H-4lambda6-[1,4,3]oxathiazin-2-ylamino)-3-(2-chloro-3-fluorophenyl)-propan-1-ol] was 6 nM; that for `CC1(C)OC(N[C@@H](CCO)c2ccccc2F)=NS(=O)(=O)C1Cc1ccccc1` (stereo partly drawn) [Example 12, (S)-3-(5-Benzyl-6,6-dimethyl-4,4-dioxo-5,6-dihydro-4H-4lambda6-[1,4,3]oxathiazin-2-ylamino)-3-(2-fluorophenyl)-propan-1-ol] was 4 nM.
`CC1(C)OC(N[C@@H](CCO)c2ccccc2)=NS(=O)(=O)C1Cc1ccc(Cl)cc1` (stereo partly drawn) [Example 1, (S)-3-[5-(4-Chlorobenzyl)-6,6-dimethyl-4,4-dioxo-5,6-dihydro-4H-4lambda6-[1,4,3]oxathiazin-2-ylamino]-3-phenyl-propan-1-ol] had an IC50 of 5 nM. This IC50 and that of the compound before are within 1.5-fold of each other.
